Key:
GAPDH/Siah1 association = biological target: T1, GAPDH/Siah1 association (Homo sapiens, UniProt P04406+Q8IUQ4); experiment: Co-immunoprecipitation (pull down) of GAPDH/Siah1 association in hRP; format: cell-based; details: high glucose 25 mM 48 hrs vs L-glucose 25 mM
T1 construct: immunoprecipitation (IP) with anti-Siah1, followed by western blot (WB) analysis of the immuno-complexes with anti-GAPDH; endogenous in cells; host or cells: primary human retinal pericytes (hRP), Cell Systems
Protocol: HRP were treated with normal glucose (5 mM), high glucose (25 mM) or L-glucose (25 mM) for 48 hrs.
HRP were treated with normal, osmotic control or high glucose plus 10 μM negative control siRNA, 10 μM Siah1-directed siRNA, 1 μM TAT-FLAG Control, 1 μM TAT-FLAG GAPDH peptide, 1 μM TAT-FLAG Siah1 peptide or 1 μM GAPDH+1 μM Siah1 peptides. Pull down assays were performed as described above. Our GAPDH peptide was designed to block the GAPDH binding site on Siah1 and the Siah1 peptide was designed to block the Siah1 binding site on GAPDH (Supplemental Table 1).
HRP Treatment: Primary cultures of human retinal pericytes (hRP) (Cell Systems; Kirkland, Wash.) were seeded into tissue culture flasks coated with attachment factor (Cell Signaling; Danvers, Mass.). HRP were grown and cultured in Dulbecco's modified Eagle's medium normal glucose (5.5 mM DMEM 1×, Life Technologies; Carlsbad, Calif.) supplemented with 10% FBS, and cell growth supplements, including antibiotics (Lonza; Basel). All cultures were incubated at 37° C., 5% CO2 and 95% relative humidity (20.9% oxygen). Passages 5 to 7 were used for all experiments. HRP identity was confirmed by immunoreactivity of neuron glial 2 (NG2) (EMD Millipore; Temecula, Calif.). […] A FLAG tag peptide sequence enables detection and quantification of these peptides (FIG. 12). […]

[1] = test system: human retinal pericytes (hRP); experiment: Apoptosis measurement by caspase-3 enzymatic activity in hRP; format: cell-based; details: 25 mM D-glucose for 72 hrs
Protocol: HRP were treated with normal glucose, L-glucose or high glucose for 48 hrs-72 hrs. […] Furthermore, GAPDH and Siah1 blocking peptides inhibited high glucose-induced hRP apoptosis (FIG. 5D Control Peptide p=0.0019, GAPDH peptide p=0.0090, Siah1 peptide p=0.0053).
HRP Treatment: Primary cultures of human retinal pericytes (hRP) (Cell Systems; Kirkland, Wash.) were seeded into tissue culture flasks coated with attachment factor (Cell Signaling; Danvers, Mass.). HRP were grown and cultured in Dulbecco's modified Eagle's medium normal glucose (5.5 mM DMEM 1×, Life Technologies; Carlsbad, Calif.) supplemented with 10% FBS, and cell growth supplements, including antibiotics (Lonza; Basel). All cultures were incubated at 37° C., 5% CO2 and 95% relative humidity (20.9% oxygen). Passages 5 to 7 were used for all experiments. HRP identity was confirmed by immunoreactivity of neuron glial 2 (NG2) (EMD Millipore; Temecula, Calif.). […] A FLAG tag peptide sequence enables detection and quantification of these peptides (FIG. 12).
Apoptosis Measurements: All apoptosis measurements were taken after 72 hrs of appropriate treatment. […] Samples were quantified using flow cytometry analysis performed at Vanderbilt's Flow Cytometry Shared Resource core laboratory. […] Activity was quantified using the EnzChek Caspase-3 Assay Kit (Life Technologies). […] Fluorescence emission at 440 nm was measured 2 hrs later.

Siah1 = Siah1 total protein western blot in hRP; format: cell-based, human; details: 25 mM D-glucose 48 hrs vs 25 mM L-glucose
Protocol: HRP were treated with normal glucose (5 mM D-glucose), osmotic control (25 mM L-glucose) or high glucose (25 mM D-glucose) for 48 hrs. Siah1 total protein increased 2-fold in cultures treated with high glucose compared to those treated with the osmotic control (p=0.0136). There was no significant difference between osmotic control and normal glucose treated cells (FIG. 1A).
Nuclear Fractionation and Western Blot Analysis: HRP were treated as necessary. Cells were harvested using TrypLE Express (Life Technologies), and lysed using radioimmunoprecipitation assay (RIPA) buffer (Qiagen; Limburg, Netherlands). The NE-PER nuclear and cytoplasmic extraction reagents (Thermo Scientific; Nashville, Tenn.) were used to separate lysates into cytosolic and nuclear fractions. Samples were equilibrated for total protein concentration, subjected to 10% SDS/PAGE, and gels were transferred to nitrocellulose membranes using the iBlot system (Life Technologies). […] (β-actin was used to determine total protein concentration. Membranes were incubated in Pierce ECL western blotting substrate and developed using ChemiDoc MP (Bio-Rad; Hercules, Calif.). At least three independent experiments were used to generate western blot quantification graphs. Blots were quantified using the ImageJ 1.47v software.

T1 sequence (Q8IUQ4 whole entry): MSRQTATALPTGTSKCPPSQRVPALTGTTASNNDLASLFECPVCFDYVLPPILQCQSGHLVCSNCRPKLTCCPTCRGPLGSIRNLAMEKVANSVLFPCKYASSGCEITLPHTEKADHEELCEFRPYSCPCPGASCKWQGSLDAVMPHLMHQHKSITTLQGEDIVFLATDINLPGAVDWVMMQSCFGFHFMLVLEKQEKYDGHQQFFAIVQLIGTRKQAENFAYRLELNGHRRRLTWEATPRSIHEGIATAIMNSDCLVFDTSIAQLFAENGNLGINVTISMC
T1 sequence (P04406 2-335 limits assumed): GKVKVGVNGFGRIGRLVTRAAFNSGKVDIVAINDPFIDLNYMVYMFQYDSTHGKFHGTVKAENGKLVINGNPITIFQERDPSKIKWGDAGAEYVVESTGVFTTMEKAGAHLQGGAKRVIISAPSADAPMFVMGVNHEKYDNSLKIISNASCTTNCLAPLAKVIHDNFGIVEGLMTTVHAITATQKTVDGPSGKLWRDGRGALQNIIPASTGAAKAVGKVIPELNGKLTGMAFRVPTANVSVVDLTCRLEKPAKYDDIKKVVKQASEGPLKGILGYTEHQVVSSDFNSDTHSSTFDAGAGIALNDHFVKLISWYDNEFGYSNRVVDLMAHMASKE

O=C[C@H](O)[C@@H](O)[C@H](O)[C@H](O)CO [high glucose, D-glucose]
increase in GAPDH/Siah1 association vs osmotic control (GAPDH/Siah1 association): 1.5 fold
increase in caspase-3-enzymatic activity [1]: 3 fold
increase of Siah1 total protein vs osmotic control (Siah1): 2 fold

— patent US20180296639A1, “THERAPEUTIC PEPTIDES” (Hoffmann-La Roche Inc., priority 2015, published 2018)
